One series deals with Lys80 (UniProt position 86, IPGTGKAFGGL). The series is described as follows: UV-vis. Particulars: ferric protein; Lys80/His18-ligated haem converting to H2O/His-ligated haem; cited from earlier work.
The target of series [1] is yeast iso-1 cytochrome c WT* (pseudo-wild-type), ferric (Saccharomyces cerevisiae, UniProt P00044, C108S/K78A/K79A/K85G/M86K). Briefly: equilibrium titration, Soret absorbance at […] and […] nm, one-site fit. The format is binding.
The target of series [2] is yeast iso-1 cytochrome c WT* (pseudo-wild-type), ferric (Saccharomyces cerevisiae, UniProt P00044, C108S/K78A). The series is described as above. It counts as binding.
Sequence of yeast iso-1 cytochrome c WT* (pseudo-wild-type), ferric (Saccharomyces cerevisiae, UniProt P00044, C108S/K78A) (P00044 2-109 K78A/C108S): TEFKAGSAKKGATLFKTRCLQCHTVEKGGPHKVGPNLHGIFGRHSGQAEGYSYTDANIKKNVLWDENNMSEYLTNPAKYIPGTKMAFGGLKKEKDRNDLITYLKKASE

Sequence of yeast iso-1 cytochrome c WT* (pseudo-wild-type), ferric (Saccharomyces cerevisiae, UniProt P00044, C108S/K78A/K79A/K85G/M86K) (P00044 2-109 K78A/K79A/K85G/M86K/C108S): as the sequence (P00044 2-109 K78A/C108S) above, with K78A, K84G, M85K counted along it

On to “iso-1 cytochrome c, M80K# (K73A/K79G/M80K in WT* background) (Saccharomyces cerevisiae; K72A;K73A;K79G;M80K;C102S)”, for which the pKa in the series with Lys80 is reported as 4.9 ± 0.2.

As to `c1c[nH]cn1` [imidazole], the Kd in series [1] is 2330 µM; in series [2], 2780 µM.

Usually pKa stands for the pH at which an ionisable group is half protonated. As a reminder, the Kd is the free concentration of one partner at which half of the binding sites on the other are occupied at equilibrium, for simple one-to-one binding.

These data come from PMC6107088 (Inorganic chemistry, 2018).
